Assays:
[1] = system: 3DG-dependent crosslinking of collagen type I; test: Inhibition of 3DG collagen crosslinking in vitro (CnBr digest, SDS-PAGE); type: biochemical; conditions: calf skin collagen type 1, 5 mM 3DG plus 10 mM arginine, 24 hr
Protocol: The direct inactivation of 3DG is a method of reducing 3DG levels. Calf skin collagen type 1 (1.3 mg) was incubated with no addition, with 5 mM 3DG, or with 5 mM 3DG plus 10 mM of arginine for 24 hr. Each sample was digested with cyanogen bromide (CnBr) to create peptide fragments that are visualized by sodium-dodecyl sulfate-polyacrylamide gel electrophoresis (SDS-PAGE) (FIG. 4). Lane 2 is collagen alone; lane 3 is collagen plus 5 mM 3DG; and lane 4 is collagen plus 5 mM 3DG plus 10 mM arginine. Lanes 5, 6, and 7 are the same, but with twice as much sample applied.
Crosslinking was assessed by visually determining the amount of high molecular weight protein remaining near the origin of the resolving gel, as compared to the amount that migrates into the gel matrix. The more crosslinking that exists, the more material there is near the origin of the gel. The lanes containing collagen with 3DG (#3, #6) have more material residing at the origin than those containing collagen alone (#2, #5).

[2] = system: 3DG; conditions: in vivo; cited from earlier work

SMILES | 3DG crosslinking of collagen (high molecular weight protein near gel origin, visual) [1] | urinary or plasma 3DG [2]
N=C(N)NCCC[C@H](N)C(=O)O [arginine] | able to inactivate 3DG and prevent it from crosslinking collagen | 
N[C@@H](CCCCNC[C@H](O)[C@@H](O)[C@@H](O)[C@H](O)CO)C(=O)O [galactitollysine] |  | reduced
N[C@@H](CCCCNC[C@@H](O)[C@@H](O)[C@H](O)[C@H](O)CO)C(=O)O [mannitollysine] |  | reduced
CNC[C@H](O)[C@@H](O)[C@H](O)[C@H](O)CO [meglumine, N-methyl glucamine] |  | reduced
N[C@@H](CCCCNC[C@H](O)[C@@H](O)[C@H](O)[C@H](O)CO)C(=O)O [sorbitollysine] |  | reduced

Source: patent US20060110439A1, “Dermal delivery of n-methyl-glucamine and n-methyl-glucamine compounds” (Dynamis Therapeutics, Inc., priority 2004, published 2006)
